# According to patent publication US7019034B2, “Compositions and methods for reducing serum glucose and triglyceride levels in diabetic mammals” (Allergan, Inc., priority 2003, dated 2006):
# Tests used:
# diabetic db/db mice [1] = experiment: serum triglycerides in diabetic db/db mice, 7 days oral dosing; type: in vivo; details: for Triglycerides: 50 mg/kg once daily oral gavage, mean +/- SD
# Procedure: (§1) Effects of RXR agonists on serum glucose and triglyceride were studied in diabetic db/db mice. […] Briefly, animals were dosed once daily by oral gavage using corn oil vehicle for a period of 7 consecutive days. Serum samples were collected on day 1 (first day of dosing) and day 7 at hour 0 (immediately prior to dosing) and hour 3 (approximately 3 hours after dosing). Serum glucose and triglyceride levels of these samples were measured as described in the reference manuals: Glucose/HK. Boehringer Mannheim Corporation, 9115 Hague Road, Indianapolis, Ind., USA and Triglycerides/GPO. Roche Diagnostics Corporation, 9115 Hague Road, Indianapolis, Ind., USA, expressly incorporated herein. Only those animals with glucose levels of higher than 300 mg/dl at 0 hour on day 1 were considered as diabetic and included in data analysis.
# (§2) A measured amount of dosing solution was withdrawn into a metal feeding tube attached to a marked syringe. Animals were restrained by grasping of their back skin while the feeding tube was gently inserted into their mouth and into esophagus. A fixed amount of the dosing solution was displaced into the esophagus/stomach of the animal by pushing the plunger of the syringe. Serum samples were collected from the retro-orbital sinus while the animals were anesthetized. These samples were analyzed by using commercially available kits from Boehringer Manheim for their glucose levels and Roche Diagnostics for their triglyceride levels in a Boehringer Manheim Hatachi Clinical Chemistry Analyzer.
# (§3) For glucose assay, an enzymatic reaction using hexokinase and glucose-6-phosphodehydrogenase to catalyze glucose to gluconate-6phosphate and NADPH was employed. The amount of NADPH formed during these reactions was equivalent to the amount of glucose in the serum and was measured with a spectrophotometer. For triglycerides, a series of enzymatic reactions which included lipase, glycerol kinase and glycerol phosphate oxidase to formed dihydroacetone phosphate and peroxidase. The peroxidase produced catalyzed a reaction between peroxide and 4-aminophenazone and 4-chlorophenol in a Trinder reaction to generate a color change. This color change was measured by a spectrophotometer and reflected the amount of triglyceride in the sample.
# RXRγ = biological target: T1, RXRγ (UniProt P28705); experiment: holoreceptor transactivation assay, RXRγ; type: cell-based
# T1 sequence (P28705 1-463): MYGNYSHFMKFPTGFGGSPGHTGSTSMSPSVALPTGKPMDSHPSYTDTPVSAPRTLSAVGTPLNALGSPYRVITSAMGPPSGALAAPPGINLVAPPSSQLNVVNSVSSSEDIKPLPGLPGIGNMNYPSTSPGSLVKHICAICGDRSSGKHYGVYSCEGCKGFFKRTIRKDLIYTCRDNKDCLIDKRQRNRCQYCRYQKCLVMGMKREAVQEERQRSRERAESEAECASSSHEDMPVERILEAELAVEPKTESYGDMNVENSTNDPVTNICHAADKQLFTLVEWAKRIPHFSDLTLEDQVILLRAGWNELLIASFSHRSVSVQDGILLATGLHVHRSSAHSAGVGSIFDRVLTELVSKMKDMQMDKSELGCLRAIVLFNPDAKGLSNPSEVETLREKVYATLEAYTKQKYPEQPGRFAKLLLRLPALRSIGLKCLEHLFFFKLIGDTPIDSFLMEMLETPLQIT
# Excerpt: The results obtained in this assay are expressed in EC50 numbers, as they are also in the chimeric receptor transactivation assay. The results of the ligand binding assay are expressed in Ki numbers.
# Particularly, the transactivation data pertaining to activation of the RAR receptors were obtained in the chimeric assay, and the transactivation data pertaining to the activation of RXR receptors were obtained in the holoreceptor assay.
# In Table 1 NA stands for not active at all as an agonist. ND stands for not determined. The first row of numbers pertaining to each compound is the measured EC50 number. […] The third row of numbers pertaining to each compound is the binding Ki number.
# diabetic db/db mice [2] = experiment: serum glucose in diabetic db/db mice, 7 days oral dosing; type: in vivo; details: for Glucose: 50 mg/kg once daily oral gavage, mean +/- SD
# Procedure: as §1, §2, §3
# [3] = Day 1, 0 hr (immediately prior to dosing)
smiles,measurement,setting,value
"CCOc1cc2c(cc1\C(CC)=C(F)/C=C/C(C)=C/C(=O)O)C(C)(C)CCC2(C)C [Compound 2, (2E,4E,6E)-7-(3-Ethoxy-5,5,8,8-tetramethyl-5,6,7,8-tetrahydronaphthalen-2-yl)-6-fluoro-3-methylnona-2,4,6-trienoic acid]",Triglycerides,diabetic db/db mice [1]; [3],168 ± 74 mg/dL
same,Triglycerides,"diabetic db/db mice [1]; Day 1, 3 hr",142 ± 94 mg/dL
same,Triglycerides,"diabetic db/db mice [1]; Day 7, 0 hr",157 ± 106 mg/dL
same,Triglycerides,"diabetic db/db mice [1]; Day 7, 3 hr",95 ± 33 mg/dL
same,effect on serum triglyceride (in words),"diabetic db/db mice [1]; mouse, in vivo",does not affect
same,EC50,"RXRγ; NA = not active at all as an agonist, read-out: RXR Trans. EC50 γ",9 nM
same,RXR γ efficacy in percentage as compared to the standard compound,RXRγ; number in brackets,18%
same,Glucose,diabetic db/db mice [2]; [3],529 ± 123 mg/dL
same,Glucose,"diabetic db/db mice [2]; Day 1, 3 hr",436 ± 127 mg/dL
same,Glucose,"diabetic db/db mice [2]; Day 7, 0 hr",414 ± 105 mg/dL
same,Glucose,"diabetic db/db mice [2]; Day 7, 3 hr",350 ± 140 mg/dL
same,effect on serum glucose in diabetic mouse (in words),"diabetic db/db mice [2]; mouse, in vivo",capable of lowering serum glucose
